test system: NMNAT2; test: NMNAT2-Hibit nano-luciferase activity in stably transfected U87MG cells, various concentrations, 24 hours; assay type: cell-based; settings: U87MG cells stably transfected with NMNAT2-Hibit luc plasmid
Description: Selected compounds were tested in vitro. U87MG cells were stably transfected with NMNAT2-Hibit luc plasmid. Cells were treated with a test compound at various concentrations for 24 hours. Cells were then collected and assayed for nano-luciferase activity.

Row | SMILES | E: compound efficacy for NMNAT2 activation (concentration giving >25% increase in NMNAT2 luciferase activity)
1 | Cc1ccc(C)c(Cn2cc3c4c(cccc42)C(=O)N(Cc2cccc(F)c2)CC3)c1 [BC20270] | + (“+” >25% increase in NMNAT2 luciferase activity at >25 μM.)
2 | Fc1cccc(Cn2c3c(c4ccccc42)CNCC3)c1 [BC20333] | ++ (“++” >25% increase in NMNAT2 luciferase activity at >1 μM ≤25 μM.)
3 | Cc1ccc(C)c(Cn2c3c(c4ccccc42)CN(C(=O)NCc2cccc(F)c2)CC3)c1 [BC20253] | + (“+” >25% increase in NMNAT2 luciferase activity at >25 μM.)
4 | O=C(CCCc1cn(Cc2cccc(F)c2)c2ccccc12)NCc1ccncc1 [BC20148] | ++ (“++” >25% increase in NMNAT2 luciferase activity at >1 μM ≤25 μM.)
5 | Cc1ccc(C)c(Cn2c(C)c([C@H]3C[C@@H]3C(=O)NCc3ccco3)c3ccccc32)c1 (racemic) [BC20323] | + (“+” >25% increase in NMNAT2 luciferase activity at >25 μM.)
6 | Cc1ccc(C)c(Cn2c(C(F)F)c(CCC(=O)NCc3ccccc3C)c3ccccc32)c1 [BC20395] | ++ (“++” >25% increase in NMNAT2 luciferase activity at >1 μM ≤25 μM.)
7 | CC(Cc1ccco1)NC(=O)C1CCCc2c1c1ccccc1n2Cc1cccc(F)c1 (centres unmarked) [BC20377] | + (“+” >25% increase in NMNAT2 luciferase activity at >25 μM.)
8 | O=C(Nc1cccc(C(F)(F)F)c1)N1CCc2c(c3ccccc3n2Cc2cccc(F)c2)C1 [BC20362] | ++ (“++” >25% increase in NMNAT2 luciferase activity at >1 μM ≤25 μM.)
9 | Cc1ccccc1Cn1cc(CCCC(=O)Nc2cccc(C)c2C)c2ccccc21 [BC20161] | ++ (“++” >25% increase in NMNAT2 luciferase activity at >1 μM ≤25 μM.)
10 | Cc1ccc(CNC(=O)Cn2cc(C(=O)c3ccc(Cl)cc3)c3ccccc32)o1 [BC20176] | ++ (“++” >25% increase in NMNAT2 luciferase activity at >1 μM ≤25 μM.)
11 | Cc1ccc(C)c(Cn2c(C(F)F)c(CCC(=O)N(CCCN3CCOCC3)Cc3ccco3)c3ccccc32)c1 [BC20399] | ++ (“++” >25% increase in NMNAT2 luciferase activity at >1 μM ≤25 μM.)
12 | Cc1cccc(Cn2cc(CCCC(=O)N3CCN(C(=O)c4ccco4)CC3)c3ccccc32)c1 [BC20170] | ++ (“++” >25% increase in NMNAT2 luciferase activity at >1 μM ≤25 μM.)
13 | O=C(C1CCc2c(c3ccccc3n2Cc2cccc(F)c2)C1)N1CCc2occc2C1 (centres unmarked) [BC20260] | ++ (“++” >25% increase in NMNAT2 luciferase activity at >1 μM ≤25 μM.)
14 | COc1cccc(CNC(=O)CCCc2cn(Cc3ccccc3F)c3ccccc23)c1 [BC20128] | ++ (“++” >25% increase in NMNAT2 luciferase activity at >1 μM ≤25 μM.)
15 | Cc1cccc(CNC(=O)c2ccc3c(c2)c(C)c(C)n3Cc2ccccc2C)c1 [BC20204] | ++ (“++” >25% increase in NMNAT2 luciferase activity at >1 μM ≤25 μM.)
16 | O=C(NCCc1ccccc1)C1CCCc2c1c1ccccc1n2Cc1cccc(F)c1 (centres unmarked) [BC20378] | ++ (“++” >25% increase in NMNAT2 luciferase activity at >1 μM ≤25 μM.)
17 | Cc1cccc(Cn2cc(CCCC(=O)NCc3ccncc3)c3ccccc32)c1 [BC20174] | ++ (“++” >25% increase in NMNAT2 luciferase activity at >1 μM ≤25 μM.)
18 | Cc1ccc(C)c(Cn2c(C(F)F)c(CCC(=O)NCc3cccnc3)c3ccccc32)c1 [BC20403] | + (“+” >25% increase in NMNAT2 luciferase activity at >25 μM.)
19 | Cc1cccc(CNC(=O)C2CCc3c(c4ccccc4n3Cc3cccc(F)c3)C2)c1 (centres unmarked) [BC20224] | + (“+” >25% increase in NMNAT2 luciferase activity at >25 μM.)
20 | Cc1ccc(C)c(Cn2cc3c4c(cccc42)C(=O)N(CCc2ccccc2C)CC3)c1 [BC20273] | + (“+” >25% increase in NMNAT2 luciferase activity at >25 μM.)
21 | Cc1ccc(Cn2c3c(c4ccccc42)C(C(=O)NCc2ccncc2)CCC3)cc1 (centres unmarked) [BC20390] | + (“+” >25% increase in NMNAT2 luciferase activity at >25 μM.)
22 | Cc1c(C)n(Cc2ccccc2F)c2ccc(C(=O)N(CCCN3CCOCC3)Cc3ccco3)cc12 [BC20263] | ++ (“++” >25% increase in NMNAT2 luciferase activity at >1 μM ≤25 μM.)

Row | SMILES | E: compound efficacy for NMNAT2 activation (concentration giving >25% increase in NMNAT2 luciferase activity)
23 | Cc1c(C)n(Cc2ccccc2F)c2ccc(C(=O)NCCc3ccccc3)cc12 [BC20245] | ++ (“++” >25% increase in NMNAT2 luciferase activity at >1 μM ≤25 μM.)
24 | COc1ccccc1CNC(=O)C1CCc2c(c3ccccc3n2Cc2cccc(F)c2)C1 (centres unmarked) [BC20225] | + (“+” >25% increase in NMNAT2 luciferase activity at >25 μM.)
25 | Cc1ccccc1Cn1c(C)c(C)c2cc(C(=O)NCC3CCCO3)ccc21 (centres unmarked) [BC20201] | + (“+” >25% increase in NMNAT2 luciferase activity at >25 μM.)
26 | Cc1cccc(NC(=O)CCCc2cn(Cc3ccccc3F)c3ccccc23)c1C [BC20134] | ++ (“++” >25% increase in NMNAT2 luciferase activity at >1 μM ≤25 μM.)
27 | COc1ccccc1CNC(=O)C1CCCc2c1c1ccccc1n2Cc1cccc(F)c1 (centres unmarked) [BC20374] | + (“+” >25% increase in NMNAT2 luciferase activity at >25 μM.)
28 | Cc1ccc(CNC(=O)c2ccc3c(c2)c(C)c(C)n3Cc2ccccc2F)o1 [BC20193] | + (“+” >25% increase in NMNAT2 luciferase activity at >25 μM.)
29 | Cc1ccccc1CNC(=O)CCCc1cn(Cc2ccccc2F)c2ccccc12 [BC20125] | ++ (“++” >25% increase in NMNAT2 luciferase activity at >1 μM ≤25 μM.)
30 | Cc1cccc(NC(=O)CCCc2cn(Cc3cccc(F)c3)c3ccccc23)c1C [BC20149] | ++ (“++” >25% increase in NMNAT2 luciferase activity at >1 μM ≤25 μM.)
31 | O=C1CC(c2cn(Cc3cccc(F)c3)c3ccccc23)CCN1Cc1cccc(F)c1 (centres unmarked) [BC20319] | + (“+” >25% increase in NMNAT2 luciferase activity at >25 μM.)
32 | COc1ccc(CCN2CCc3cn(Cc4cccc(F)c4)c4cccc(c34)C2=O)cc1 [BC20278] | + (“+” >25% increase in NMNAT2 luciferase activity at >25 μM.)
33 | Cc1cccc(CNC(=O)c2ccc3c(c2)c(C)c(C)n3Cc2cccc(F)c2)c1 [BC20114] | ++ (“++” >25% increase in NMNAT2 luciferase activity at >1 μM ≤25 μM.)
34 | COc1cccc(CNC(=O)CCc2c(C(F)F)n(Cc3cc(C)ccc3C)c3ccccc23)c1 [BC20398] | ++ (“++” >25% increase in NMNAT2 luciferase activity at >1 μM ≤25 μM.)
35 | COc1cccc(CNC(=O)CCCc2cn(Cc3cccc(F)c3)c3ccccc23)c1 [BC20143] | ++ (“++” >25% increase in NMNAT2 luciferase activity at >1 μM ≤25 μM.)
36 | O=C(CCCc1cn(Cc2cccc(F)c2)c2ccccc12)NCc1cccc(F)c1 [BC20139] | ++ (“++” >25% increase in NMNAT2 luciferase activity at >1 μM ≤25 μM.)
37 | Cc1cccc(NC(=O)N2CCc3c(c4ccccc4n3Cc3cccc(F)c3)C2)c1C [BC20312] | + (“+” >25% increase in NMNAT2 luciferase activity at >25 μM.)
38 | O=C(CCCc1cn(Cc2cccc(F)c2)c2ccccc12)N1CCN(C(=O)c2ccco2)CC1 [BC20144] | ++ (“++” >25% increase in NMNAT2 luciferase activity at >1 μM ≤25 μM.)
39 | Cc1ccccc1Cn1c(C)c(C)c2cc(C(=O)NCc3ccco3)ccc21 [BC20199] | ++ (“++” >25% increase in NMNAT2 luciferase activity at >1 μM ≤25 μM.)
40 | COc1ccc(CNC(=O)N2CCc3c(c4ccccc4n3Cc3ccncc3)C2)cc1 [BC20338] | + (“+” >25% increase in NMNAT2 luciferase activity at >25 μM.)
41 | Cc1ccccc1CNC(=O)C1CCCc2c1c1ccccc1n2Cc1cccc(F)c1 (centres unmarked) [BC20372] | + (“+” >25% increase in NMNAT2 luciferase activity at >25 μM.)
42 | O=C(Cn1cc(C(=O)c2ccc(Cl)cc2)c2ccccc21)NCc1ccccc1F [BC20177] | +++ (“+++” >25% increase in NMNAT2 luciferase activity at ≤1 μM.)
43 | Cc1c(C)n(Cc2cccc(F)c2)c2ccc(C(=O)NCCc3ccccc3)cc12 [BC20248] | ++ (“++” >25% increase in NMNAT2 luciferase activity at >1 μM ≤25 μM.)
44 | COc1cccc(CNC(=O)CCCc2cn(Cc3ccccc3C)c3ccccc23)c1 [BC20156] | ++ (“++” >25% increase in NMNAT2 luciferase activity at >1 μM ≤25 μM.)

Source: patent publication US20220169632A1, “METHODS AND MATERIALS FOR INCREASING OR MAINTAINING NICOTINAMIDE MONONUCLEOTIDE ADENYLYL TRANSFERASE-2 (NMNAT2) POLYPEPTIDE LEVELS” (University of Pittsburgh - Of the Commonwealth System of …, priority 2019, published 2022)
